Reference: US20250270191A1, “QUINOLONE BCL6 BIFUNCTIONAL DEGRADERS” (Treeline Biosciences, Inc., priority 2022, published 2025)

Assays:
[1] = target: T1, Human BCL6 protein (N-terminal HiBiT tagged BCL6 in HT1080 cells) (Homo sapiens, UniProt P41182+Q96SW2); experiment: HiBiT based BCL6 degradation assay; type: cell-based; settings: HT1080 cells expressing N-terminal HiBiT tagged BCL6; 5 hours incubation; BCL6 degradation normalized with DMSO control
T1 construct: Human BCL6 protein coding open reading frame; expressed in transfected cells; host or cells: HT1080 (ATCC CCL-121), stably transduced with lentivirus pLV-UBC-N-HiBiT-BCL6-PGK-puro
Procedure, shortened: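 HT1080 cells stably expressing N-terminal HiBiT-BCL6 were treated with compound dilution series for 5 h at 37° C. in RPMI 1640 with 10% FBS. HiBiT lytic luminescence read after 15 min; degradation normalized to DMSO, with curves fitted by four-parameter logistic model.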

[2] = Pharmacokinetic assessment in male CD-1 mice (IV and PO); type: in vivo; settings: mouse, plasma; for clearance: clearance (IV), commonly 1 mg/kg; for clearance / AUC(0-inf): non-compartmental model; for bioavailability: oral bioavailability, PO commonly 10 mg/kg vs IV commonly 1 mg/kg; for Cmax / AUC(0-inf): route not given
Description: Pharmacokinetics (PK) studies were conducted on male CD-1 mice by two delivery routes: intravenous (IV) injection and oral gavage (PO). Mice for the IV group (n=3) were allowed free access to food and water and mice for the PO group (n=3) were fasted 6-8 hours prior to dosing. The test articles were formulated in solution for the IV route (commonly 5% DMSO/10% Solutol HS15/85% water (pH 5)) and solution or suspension for the PO route (commonly 100% PEG400). On the day of the experiment, test article was administered via vein injection (commonly 1 mg/kg) for IV route or via oral gavage (commonly 10 mg/kg) for PO route, respectively. Blood samples were collected via the saphenous vein using a needle (commonly 20G) at 0.83 to 24 hours post dose. Approximately 30 μL of blood per timepoint was collected into pre-chilled tubes using K2EDTA as the anti-coagulant. After collection of blood samples at each time point, the blood samples were stored on ice. Blood samples were centrifuged within 0.5 hour of collection to separate plasma. Centrifugation was conducted at 2500×g for 15 minutes at 4° C. Plasma samples were immediately acidified (commonly 0.1M sodium citrate (pH=5) buffer). The samples were then submitted to LC-MS/MS for sample analysis. Pharmacokinetics parameters, including clearance (IV), area under the curve (AUC), and oral bioavailability (% F) were calculated by non-compartmental model.

Row | SMILES | Ymin (5 hr) [1] | other results
1 | CNC(=O)COc1cc2cc(Nc3nc(N4CCN(CC5CCN(c6cccc7c(C8CCC(=O)NC8=O)nn(C)c67)CC5)CC4)ncc3Cl)ccc2n(C)c1=O (stereo not shown) [Compound 101, 2-((6-((5-chloro-2-(4-((1-(3-(2,6-dioxopiperidin-3-yl)-1-methyl-1H-indazol-7-yl)piperidin-4-yl)methyl)piperazin-1-yl)pyrimidin-4-yl)amino)-1-methyl-2-oxo-1,2-dihydroquinolin-3-yl)oxy)-N-methylacetamide] | ++++ (Ymin ≤ 25%) | clearance [2]: 12.8 mL/min/kg; bioavailability [2]: 76.4%; Cmax [2]: 3400 nM; AUC(0-inf) [2]: 12.6 µM·h
2 | CNC(=O)COc1cc2cc(Nc3nc(N4CCN(CC5CCN(c6ccc7c(C8CCC(=O)NC8=O)nn(C)c7c6)CC5)CC4)ncc3Cl)ccc2n(C)c1=O (stereo not shown) [Compound 102, 2-((6-((5-chloro-2-(4-((1-(3-(2,6-dioxopiperidin-3-yl)-1-methyl-1H-indazol-6-yl)piperidin-4-yl)methyl)piperazin-1-yl)pyrimidin-4-yl)amino)-1-methyl-2-oxo-1,2-dihydroquinolin-3-yl)oxy)-N-methylacetamide] | +++ (25% < Ymin ≤ 50%) | clearance [2]: 10.8 mL/min/kg; bioavailability [2]: 67.5%; Cmax [2]: 2550 nM; AUC(0-inf) [2]: 13.5 µM·h
3 | CNC(=O)COc1cc2cc(Nc3nc(N4CCN(C(C)(C)C5CCN(c6ccc7c(C8CCC(=O)NC8=O)nn(C)c7c6)CC5)CC4)ncc3Cl)ccc2n(C)c1=O (stereo not shown) [Compound 340, 2-((6-((5-chloro-2-(4-(2-(1-(3-(2,6-dioxopiperidin-3-yl)-1-methyl-1H-indazol-6-yl)piperidin-4-yl)propan-2-yl)piperazin-1-yl)pyrimidin-4-yl)amino)-1-methyl-2-oxo-1,2-dihydroquinolin-3-yl)oxy)-N-methylacetamide] | +++ (25% < Ymin ≤ 50%) | 
4 | CNC(=O)COc1cc2cc(Nc3nc(N4CC5(CCC(Nc6ccc7c(C8CCC(=O)NC8=O)nn(C)c7c6)CC5)C4)ncc3Cl)ccc2n(C)c1=O (stereo not shown) [Compound 341, 2-((6-((5-chloro-2-(7-((3-(2,6-dioxopiperidin-3-yl)-1-methyl-1H-indazol-6-yl)amino)-2-azaspiro[3.5]nonan-2-yl)pyrimidin-4-yl)amino)-1-methyl-2-oxo-1,2-dihydroquinolin-3-yl)oxy)-N-methylacetamide] | ++++ (Ymin ≤ 25%) | 
5 | CNC(=O)COc1cc2cc(Nc3nc(N4CC5(CCC(Nc6cccc7c(C8CCC(=O)NC8=O)nn(C)c67)CC5)C4)ncc3Cl)ccc2n(C)c1=O (stereo not shown) [Compound 342, 2-((6-((5-chloro-2-(7-((3-(2,6-dioxopiperidin-3-yl)-1-methyl-1H-indazol-7-yl)amino)-2-azaspiro[3.5]nonan-2-yl)pyrimidin-4-yl)amino)-1-methyl-2-oxo-1,2-dihydroquinolin-3-yl)oxy)-N-methylacetamide] | +++ (25% < Ymin ≤ 50%) | 
6 | CNC(=O)COc1cc2cc(Nc3nc(N4CCC5(CCC(Nc6ccc7c(C8CCC(=O)NC8=O)nn(C)c7c6)CC5)C4)ncc3Cl)ccc2n(C)c1=O (stereo not shown) [Compound 343, 2-((6-((5-chloro-2-(8-((3-(2,6-dioxopiperidin-3-yl)-1-methyl-1H-indazol-6-yl)amino)-2-azaspiro[4.5]decan-2-yl)pyrimidin-4-yl)amino)-1-methyl-2-oxo-1,2-dihydroquinolin-3-yl)oxy)-N-methylacetamide] | +++ (25% < Ymin ≤ 50%) | 
7 | CNC(=O)COc1cc2cc(Nc3nc(N4CCC5(CCC(Nc6cccc7c(C8CCC(=O)NC8=O)nn(C)c67)CC5)C4)ncc3Cl)ccc2n(C)c1=O (stereo not shown) [Compound 344, 2-((6-((5-chloro-2-(8-((3-(2,6-dioxopiperidin-3-yl)-1-methyl-1H-indazol-7-yl)amino)-2-azaspiro[4.5]decan-2-yl)pyrimidin-4-yl)amino)-1-methyl-2-oxo-1,2-dihydroquinolin-3-yl)oxy)-N-methylacetamide] | ++ (50% < Ymin ≤ 70%) | 
8 | CNC(=O)COc1cc2cc(Nc3nc(N4CCN(C(=O)C5CCN(c6cccc7c(C8CCC(=O)NC8=O)nn(C)c67)CC5)CC4)ncc3Cl)ccc2n(C)c1=O (stereo not shown) [Compound 345, 2-((6-((5-chloro-2-(4-(1-(3-(2,6-dioxopiperidin-3-yl)-1-methyl-1H-indazol-7-yl)piperidine-4-carbonyl)piperazin-1-yl)pyrimidin-4-yl)amino)-1-methyl-2-oxo-1,2-dihydroquinolin-3-yl)oxy)-N-methylacetamide] | ++++ (Ymin ≤ 25%) | 
9 | CNC(=O)COc1cc2cc(Nc3cc(N4CCN(CC5CCN(c6cccc7c(C8CCC(=O)NC8=O)nn(C)c67)CC5)CC4)ncc3Cl)ccc2n(C)c1=O (stereo not shown) [Compound 346, 2-((6-((5-chloro-2-(4-((1-(3-(2,6-dioxopiperidin-3-yl)-1-methyl-1H-indazol-7-yl)piperidin-4-yl)methyl)piperazin-1-yl)pyridin-4-yl)amino)-1-methyl-2-oxo-1,2-dihydroquinolin-3-yl)oxy)-N-methylacetamide] | ++++ (Ymin ≤ 25%) | 
10 | CC(=O)COc1cc2cc(Nc3nc(N4CCN(CC5CCN(c6cccc7c(C8CCC(=O)NC8=O)nn(C)c67)CC5)[C@@H](C)C4)ncc3Cl)ccc2n(C)c1=O (stereo partly drawn) [Compound 347a, 3-(7-(4-(((S)-4-(5-chloro-4-((1-methyl-2-oxo-3-(2-oxopropoxy)-1,2-dihydroquinolin-6-yl)amino)pyrimidin-2-yl)-2-methylpiperazin-1-yl)methyl)piperidin-1-yl)-1-methyl-1H-indazol-3-yl)piperidine-2,6-dione] | ++++ (Ymin ≤ 25%) | 
11 | CC(=O)COc1cc2cc(Nc3nc(N4CCC5(CCN(CC6CCN(c7ccc8c(C9CCC(=O)NC9=O)nn(C)c8c7)CC6)CC5)CC4)ncc3Cl)ccc2n(C)c1=O (stereo not shown) [Compound 348, 3-(6-(4-((9-(5-chloro-4-((1-methyl-2-oxo-3-(2-oxopropoxy)-1,2-dihydroquinolin-6-yl)amino)pyrimidin-2-yl)-3,9-diazaspiro[5.5]undecan-3-yl)methyl)piperidin-1-yl)-1-methyl-1H-indazol-3-yl)piperidine-2,6-dione] | ++++ (Ymin ≤ 25%) | 
